Assay results taken from the supplement of paper PMC10307832.

Assays:
Assay in all cases: relative viability (nuclei count vs DMSO), 5 days (fraction); higher = more cells survive
[1] = compound: C1=CC2=NC=CN=C2C=C1/C=C/3\C(=O)NC(=O)S3 + CC(=O)c1c(C)c2cnc(Nc3ccc(N4CCNCC4)cn3)nc2n(C2CCCC2)c1=O [Palbociclib] (partner 0.5 µM)
How it was run: (§1)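 Relative viability divides the nuclei count in treated wells by that in vehicle wells. Lung cancer cell lines were seeded in 1536-well plates, dosed by pin tool the next day, and fixed and stained after 5 days in one step with final 0.05% Triton X-100, 1% formaldehyde and 1 ug/ml Hoechst. Dosing was a single drug or a fixed anchor-drug dose plus five library-drug doses (not always all listed) in √10 steps, and values are medians of duplicate plates imaged at 4×.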

BGJ398 + Palbociclib = compound: CCN1CCN(c2ccc(Nc3cc(N(C)C(=O)Nc4c(Cl)c(OC)cc(OC)c4Cl)ncn3)cc2)CC1 [BGJ398] + CC(=O)c1c(C)c2cnc(Nc3ccc(N4CCNCC4)cn3)nc2n(C2CCCC2)c1=O [Palbociclib] (partner 0.5 µM)
How it was run: as §1

[2] = compound: C1=CC2=NC=CN=C2C=C1/C=C/3\C(=O)NC(=O)S3 + CCNC(=O)c1noc(-c2cc(C(C)C)c(O)cc2O)c1-c1ccc(CN2CCOCC2)cc1 [Luminespib] (partner 0.01 µM)
How it was run: as §1

[3] = compound: C1=CC2=NC=CN=C2C=C1/C=C/3\C(=O)NC(=O)S3 + NC(=O)Nc1cc(-c2cccc(F)c2)sc1C(=O)N[C@H]1CCCNC1 [AZD7762] (partner 0.2 µM)
How it was run: as §1

Cell Line	relative viability ([1]; first compound 0.02 µM)	relative viability ([1]; first compound 0.06325 µM)	relative viability ([1]; first compound 0.2 µM)	relative viability ([1]; first compound 0.6325 µM)	relative viability ([1]; first compound 2 µM)	relative viability (BGJ398 + Palbociclib; first compound 0.01 µM)	relative viability (BGJ398 + Palbociclib; first compound 0.1 µM)	relative viability (BGJ398 + Palbociclib; first compound 1 µM)	relative viability ([2]; first compound 0.02 µM)	relative viability ([2]; first compound 0.06325 µM)	relative viability ([2]; first compound 0.2 µM)	relative viability ([2]; first compound 0.6325 µM)	relative viability ([2]; first compound 2 µM)	relative viability ([3]; first compound 0.02 µM)	relative viability ([3]; first compound 0.06325 µM)	relative viability ([3]; first compound 0.2 µM)	relative viability ([3]; first compound 0.6325 µM)	relative viability ([3]; first compound 2 µM)	relative viability (BGJ398 + Palbociclib; first compound 0.03162 µM)	relative viability (BGJ398 + Palbociclib; first compound 0.3162 µM)
PC-3 [JPC-3]	0.492	0.637	0.566	0.561	0.541	0.591	0.522	0.569	0.704	0.767	0.732	0.687	0.813	0.966	1.02	0.9	0.846	0.713	–	–
BEN	0.491	0.422	0.492	0.475	0.448	0.522	0.43	0.401	0.631	0.19	0.402	0.332	0.314	0.727	0.701	0.842	0.627	0.497	0.457	0.481
NCI-H1666	0.608	0.749	0.629	0.651	0.675	0.659	0.666	0.638	1.04	0.994	1.05	0.965	1.03	0.748	0.731	0.865	0.827	0.608	0.631	0.641
LC-2-ad	0.463	0.455	0.481	0.53	0.352	0.477	0.5	0.499	0.984	0.727	1.08	1.07	0.739	0.768	0.817	0.848	0.798	0.619	0.516	0.524
ChaGo-K-1	0.888	0.69	0.971	0.917	0.947	0.914	0.944	0.923	0.553	0.454	0.762	0.541	0.572	0.799	0.821	0.905	0.791	0.83	0.959	0.962
NCI-H1975	0.465	0.683	0.563	0.56	0.394	0.575	0.672	0.417	0.289	0.117	0.202	0.149	0.174	0.589	0.632	0.705	0.747	0.418	0.678	0.546
NCI-H1993	0.623	0.68	0.58	0.603	0.331	0.674	0.655	0.724	0.712	0.863	0.854	0.798	0.557	0.772	0.801	0.963	0.538	0.432	0.639	0.692
RERF-LC-KJ	1.04	1.12	1.05	0.994	1.15	1.13	1.17	1.23	1.2	1.52	1.23	1.14	1.28	0.707	0.894	0.962	0.943	0.624	0.781	1.11
NCI-H23	0.513	0.547	0.577	0.509	0.349	0.471	0.591	0.475	0.254	0.219	0.219	0.217	0.184	0.227	0.242	0.227	0.182	0.21	0.601	0.471
EMC-BAC-2	0.496	0.568	0.54	0.498	0.384	0.497	0.547	0.516	1.13	1.22	1.17	1.09	1.02	1.11	1.18	1.21	1.08	0.651	0.558	0.568
NCI-H2405	0.517	0.585	0.528	0.512	0.436	0.523	0.52	0.547	0.783	0.598	0.6	0.699	0.424	0.824	0.924	0.762	0.722	0.428	0.586	0.553
NCI-H358	0.147	0.135	0.128	0.136	0.114	0.139	0.133	0.145	0.265	0.35	0.347	0.224	0.182	0.556	0.406	0.621	0.473	0.204	0.145	0.13
NCI-H1944	0.287	0.289	0.352	0.312	0.331	0.29	0.347	0.344	0.667	0.515	0.75	0.695	0.656	0.52	0.448	0.535	0.403	0.437	0.333	0.337
NCI-H2342	0.508	0.524	0.547	0.484	0.498	0.523	0.513	0.611	0.721	0.672	0.756	0.601	0.636	0.377	0.47	0.453	0.397	0.335	0.529	0.666
EPLC-272H	0.327	0.25	0.349	0.344	0.292	0.32	0.324	0.358	0.447	0.214	0.328	0.267	0.198	0.332	0.319	0.333	0.192	0.293	0.314	0.359
NCI-H1915	0.538	0.578	0.561	0.512	0.533	0.525	0.532	0.556	0.771	0.747	0.815	0.618	0.754	0.704	0.712	0.705	0.703	0.713	0.533	0.529
